Columns and labels:
Assay type in all cases: in vivo, human
essential tremor [1] = test: One patient, sequential course of riboflavin with/without coenzyme Q10 and B vitamins, tremor score; set-up: key to tremor score, Head / tremor score, Right Hand / tremor score, Left Hand: 0=Normal; 1=Slight; 2=Moderately abnormal; 3=Markedly abnormal; 4=Severely abnormal
Protocol: For one patient, before beginning a course of therapy in accordance with the inventive treatment, that patient's tremor score was Head 0, Right Hand 2, Left Hand 3. Treatment commenced for three months as follows:
The tremor score, after three months of treatment, improved to Head 0, Right Hand 1, Left Hand 2. Treatment then continued for an additional three months with an increase in the daily dosage of Riboflavin to 800 mg. The tremor score was then measured to be Head 0, Right Hand 0, Left Hand 1. […] Moreover, if treatment was resumed, there was a return to reduced tremor levels after 2 to 3 days.

essential tremor [2] = test: Riboflavin daily in 15 persons over 50 with essential tremor, Fahn-Tolosa-Marin clinical tremor rating; conditions: 200 mg to 1000 mg of riboflavin on a daily basis
essential tremor [3] = test: as above; set-up: key to Tremor Score After Rx, L Hand / Tremor Score After Rx, Head / Tremor Score After Rx, R Hand / Tremor Score After Rx, Hands: 0=Normal; 1=Slight; 2=Moderately abnormal; 3=Markedly abnormal; 4=Severely abnormal; conditions: for Tremor Score After Rx, Hands: before Rx Hands 1
Protocol: (§1) 15 persons over the age of 50 were tested, utilizing daily dosages of between 400 and 800 mg of riboflavin. Riboflavin was the only vitamin used for those patients who were on other tremor medications. These patients were continued on them.
Patients were evaluated with arms outstretched, elbows bent and hands near the chin, writing with both hands, drinking holding a cup with either hand, and pouring water with either hand. Evaluation was based on a four-point scale as published by Fahn, Tolosa and Marin, Clinical Rating Scale for Tremor in Parkinson's Disease and Movement Disorders [Williams and Wilkins, 1993].

[4] = test system: tremor on action and intention due to Depakote; seizures; test: One patient with severe epilepsy and Depakote-induced tremor treated with the inventive vitamin therapy; conditions: one patient with severe epilepsy on high dose Depakote
Text: Other conditions that are commonly seen in patients with essential tremor, such as deafness, motion sickness, balance difficulties, and cognitive problems may be benefited by this treatment. Additionally, patients who develop tremors due to the use of medications that cause tremor (such as Depakote and Lithium) may benefit by the use of the inventive vitamin therapy. […] Other neurological conditions, such as epilepsy, when associated with tremor, may be benefited by the inventive vitamin therapy.

[5] = Side effects in the 15-person riboflavin test
Protocol: as §1

[6] = after an additional three months with Riboflavin increased to 800 mg daily, same co-administered vitamins and coenzyme Q10

Cc1cc2nc3c(=O)[nH]c(=O)nc-3n(C[C@H](O)[C@H](O)[C@H](O)CO)c2cc1C [Riboflavin, riboflavin]
head and hand findings following treatment (essential tremor [1]; additional three months with just daily Riboflavin (800 mg) and coenzyme Q10 (1000 mg)): stable head and hand findings | tremor score, Head (essential tremor [1]; [6]): 0 | tremor score, Left Hand (essential tremor [1]; [6]): 1 | tremor score, Right Hand (essential tremor [1]; [6]): 0 | tremor score, Head (essential tremor [1]; after three months of daily Riboflavin 400 mg + Coenzyme Q10 1000 mg + Thiamine 50 mg + Niacin 50 mg + Pantothenic Acid 50 mg, before Head 0): 0 | tremor score, Left Hand (essential tremor [1]; after three months of daily Riboflavin 400 mg + Coenzyme Q10 1000 mg + Thiamine 50 mg + Niacin 50 mg + Pantothenic Acid 50 mg, before Left Hand 3): 2 | tremor score, Right Hand (essential tremor [1]; after three months of daily Riboflavin 400 mg + Coenzyme Q10 1000 mg + Thiamine 50 mg + Niacin 50 mg + Pantothenic Acid 50 mg, before Right Hand 2): 1 | head and hand findings (essential tremor [1]; thereafter a year with just Riboflavin 800 mg daily): stable head and hand findings | tremor when treatment was missed (essential tremor [1]; treatment missed for two days or more): prior untreated levels of tremor returned | effect on symptoms of essential tremor (essential tremor [2]): ameliorates the symptoms of essential tremor | Tremor Score After Rx, Hands (essential tremor [3]; patient # 1, 400 mg daily, 6 wks., concomitant None): Hands 1 | Tremor Score After Rx, Head (essential tremor [3]; patient # 1, 400 mg daily, 6 wks., before Rx Head 2, concomitant tremor medications None): Head 1 | Tremor Score After Rx, Hands (essential tremor [3]; patient # 2, 600 mg daily, 3 mos., concomitant None): Hands 1 | Tremor Score After Rx, Head (essential tremor [3]; patient # 2, 600 mg daily, 3 mos., before Rx Head 2, concomitant None): Head 1 | Tremor Score After Rx, Head (essential tremor [3]; patient # 3, 400 mg daily, 4 wks., before Rx Head 0, concomitant None): Head 0 | Tremor Score After Rx, L Hand (essential tremor [3]; patient # 3, 400 mg daily, 4 wks., before Rx L Hand 4, concomitant None): L Hand 3 | Tremor Score After Rx, R Hand (essential tremor [3]; patient # 3, 400 mg daily, 4 wks., before Rx R Hand 3, concomitant None): R Hand 2 | Tremor Score After Rx, Head (essential tremor [3]; patient # 4, 800 mg daily, 2 wks., before Rx Head 0, concomitant None): Head 0 | Tremor Score After Rx, L Hand (essential tremor [3]; patient # 4, 800 mg daily, 2 wks., before Rx L Hand 3, concomitant None): L Hand 2 | Tremor Score After Rx, R Hand (essential tremor [3]; patient # 4, 800 mg daily, 2 wks., before Rx R Hand 2, concomitant None): R Hand 2 | Tremor Score After Rx, Head (essential tremor [3]; patient # 5, 400 mg daily, 7 mos., before Rx Head 0, concomitant Inderal LA 80 mg.): Head 0 | Tremor Score After Rx, L Hand (essential tremor [3]; patient # 5, 400 mg daily, 7 mos., before Rx L Hand 3, concomitant Inderal LA 80 mg.): L Hand 2 | Tremor Score After Rx, R Hand (essential tremor [3]; patient # 5, 400 mg daily, 7 mos., before Rx R Hand 2, concomitant Inderal LA 80 mg.): R Hand 2 | Tremor Score After Rx, Head (essential tremor [3]; patient # 6, 400 mg daily, 12 mos., before Rx Head 0, concomitant Inderal LA 60): Head 0 | Tremor Score After Rx, L Hand (essential tremor [3]; patient # 6, 400 mg daily, 12 mos., before Rx L Hand 2, concomitant Inderal LA 60): L Hand 1 | Tremor Score After Rx, R Hand (essential tremor [3]; patient # 6, 400 mg daily, 12 mos., before Rx R Hand 2, concomitant Inderal LA 60): R Hand 1 | Tremor Score After Rx, Head (essential tremor [3]; patient # 7, 400 mg daily, 4 wks., before Rx Head 0, concomitant None): Head 0 | Tremor Score After Rx, L Hand (essential tremor [3]; patient # 7, 400 mg daily, 4 wks., before Rx L Hand 2, concomitant None): L Hand 1 | Tremor Score After Rx, R Hand (essential tremor [3]; patient # 7, 400 mg daily, 4 wks., before Rx R Hand 2, concomitant None): R Hand 1 | Tremor Score After Rx, Head (essential tremor [3]; patient # 8, 600 mg daily, 4 wks., before Rx Head 0, concomitant Topamax): Head 0 | Tremor Score After Rx, L Hand (essential tremor [3]; patient # 8, 600 mg daily, 4 wks., before Rx L hand 4, concomitant Topamax): L Hand 3 | Tremor Score After Rx, R Hand (essential tremor [3]; patient # 8, 600 mg daily, 4 wks., before Rx R hand 4, concomitant Topamax): R Hand 3 | Tremor Score After Rx, Head (essential tremor [3]; patient # 9, 400 mg daily, 4 wks., before Rx Head 0, concomitant Mysoline, Inderal and Topamax): Head 0 | Tremor Score After Rx, L Hand (essential tremor [3]; patient # 9, 400 mg daily, 4 wks., before Rx L Hand 4, concomitant Mysoline, Inderal and Topamax): L hand 3 | Tremor Score After Rx, R Hand (essential tremor [3]; patient # 9, 400 mg daily, 4 wks., before Rx R Hand 4, concomitant Mysoline, Inderal and Topamax): R Hand 4 | Tremor Score After Rx, Head (essential tremor [3]; patient # 10, 800 mg daily, 4 mos., before Rx Head 0, concomitant Mysoline, Inderal and Topamax): Head 0 | Tremor Score After Rx, L Hand (essential tremor [3]; patient # 10, 800 mg daily, 4 mos., before Rx L Hand 3, concomitant Mysoline, Inderal and Topamax): L Hand 2 | Tremor Score After Rx, R Hand (essential tremor [3]; patient # 10, 800 mg daily, 4 mos., before Rx R Hand 4, concomitant Mysoline, Inderal and Topamax): R Hand 4 | Tremor Score After Rx, Head (essential tremor [3]; patient # 11, 400 mg daily, 1 year, before Rx Head 2, concomitant None): Head 1 | Tremor Score After Rx, L Hand (essential tremor [3]; patient # 11, 400 mg daily, 1 year, before Rx L Hand 2, concomitant None): L Hand 1 | Tremor Score After Rx, R Hand (essential tremor [3]; patient # 11, 400 mg daily, 1 year, before Rx R Hand 2, concomitant None): R Hand 1 | Tremor Score After Rx, Head (essential tremor [3]; patient # 12, 400 mg daily, 2 wks., before Rx Head not given, concomitant None): Head 2 | Tremor Score After Rx, L Hand (essential tremor [3]; patient # 12, 400 mg daily, 2 wks., before Rx L Hand not given, concomitant None): L Hand 2 | Tremor Score After Rx, R Hand (essential tremor [3]; patient # 12, 400 mg daily, 2 wks., before Rx R hand 2, concomitant None): R Hand 1 | Tremor Score After Rx, Head (essential tremor [3]; patient # 13, 400 mg daily, 3 wks., before Rx Head 0, concomitant None): Head 0 | Tremor Score After Rx, L Hand (essential tremor [3]; patient # 13, 400 mg daily, 3 wks., before Rx L Hand 2, concomitant None): L Hand 1 | Tremor Score After Rx, R Hand (essential tremor [3]; patient # 13, 400 mg daily, 3 wks., before Rx R Hand 2, concomitant None): R Hand 1 | Tremor Score After Rx, Head (essential tremor [3]; patient # 14, 400 mg daily, 5 mos., before Rx Head 0, concomitant None): Head 0 | Tremor Score After Rx, L Hand (essential tremor [3]; patient # 14, 400 mg daily, 5 mos., before Rx L Hand 2, concomitant None): L Hand 1 | Tremor Score After Rx, R Hand (essential tremor [3]; patient # 14, 400 mg daily, 5 mos., before Rx R Hand 2, concomitant None): R Hand 1 | Tremor Score After Rx, Head (essential tremor [3]; patient # 15, 400 mg daily, 1 mo., before Rx Head 0, concomitant None): Head 0 | Tremor Score After Rx, R Hand (essential tremor [3]; patient # 15, 400 mg daily, 1 mo., before Rx R Hand 1, concomitant None): R Hand 1 | symptoms after stopping daily intake (essential tremor [3]; within a few days of stopping the daily high dosage of riboflavin): the symptoms of essential tremor returned | seizure frequency [4]: decreased | tremor on action and intention [4]: significantly improved | side effect ([5]; general statement on the treatment): bright yellow urine | Side Effects ([5]; patient # 1, 400 mg daily, 6 wks.): None | Side Effects ([5]; patient # 2, 600 mg daily, 3 mos.): None | Side Effects ([5]; patient # 3, 400 mg daily, 4 wks.): None | Side Effects ([5]; patient # 4, 800 mg daily, 2 wks.): None | Side Effects ([5]; patient # 5, 400 mg daily, 7 mos., concomitant Inderal LA 80 mg.): None | Side Effects ([5]; patient # 6, 400 mg daily, 12 mos., concomitant Inderal LA 60): None | Side Effects ([5]; patient # 7, 400 mg daily, 4 wks.): None | Side Effects ([5]; patient # 8, 600 mg daily, 4 wks., concomitant Topamax): None | Side Effects ([5]; patient # 9, 400 mg daily, 4 wks., concomitant Mysoline, Inderal and Topamax): None | Side Effects ([5]; patient # 10, 800 mg daily, 4 mos., concomitant Mysoline, Inderal and Topamax): None | Side Effects ([5]; patient # 11, 400 mg daily, 1 year): None | Side Effects ([5]; patient # 12, 400 mg daily, 2 wks.): None | Side Effects ([5]; patient # 13, 400 mg daily, 3 wks.): None | Side Effects ([5]; patient # 14, 400 mg daily, 5 mos.): None | Side Effects ([5]; patient # 15, 400 mg daily, 1 mo.): None

From patent US20070031394A1, “Method of treating neurological disorders” (priority 2005, published 2007)
